This test deals with CD2F1 mice, L1210 leukemia ip, survival T/C. Put plainly: NCI In Vivo Anticancer Drug Screen. Data for tumor model L1210 Leukemia (intraperitoneal) in CD2F1 (CDF1) mice. The note with it: higher = longer survival. The method in brief: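 In this screen, transplantable tumors were grown in mice given either the compound or its vehicle. Results were expressed as the treated measurement relative to the control measurement.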

The mark [1] stands for this setting: endpoint: mean survival time, dose: 50.0 mg/kg/injection, schedule: Q01DX009 (ip), vehicle: Klucel (hydroxypropylcellulose) (HPC).
[2] abbreviates: endpoint: mean survival time, dose: 100.0 mg/kg/injection, schedule: Q01DX009 (ip), vehicle: Klucel (hydroxypropylcellulose) (HPC).
[3] abbreviates: endpoint: mean survival time, dose: 100.0 mg/kg/injection, schedule: Q01DX009 (ip), vehicle: saline with Tween-80.
Where [4] appears, read: endpoint: mean survival time, dose: 200.0 mg/kg/injection, schedule: Q01DX009 (ip), vehicle: saline with Tween-80.
[5] abbreviates: endpoint: mean survival time, dose: 400.0 mg/kg/injection, schedule: Q01DX009 (ip), vehicle: saline with Tween-80.
Setting [6] is: endpoint: mean survival time, dose: 100.0 mg/kg/injection, schedule: Q01DX009 (ip), vehicle: saline sonified.
The mark [7] stands for this setting: endpoint: mean survival time, dose: 200.0 mg/kg/injection, schedule: Q01DX009 (ip), vehicle: saline sonified.
Setting [8] is: endpoint: mean survival time, dose: 400.0 mg/kg/injection, schedule: Q01DX009 (ip), vehicle: saline sonified.
[9] abbreviates: endpoint: mean survival time, dose: 100.0 mg/kg/injection, schedule: Q04DX002 (ip), vehicle: saline with Tween-80.
Setting [10] is: endpoint: mean survival time, dose: 200.0 mg/kg/injection, schedule: Q04DX002 (ip), vehicle: saline with Tween-80.
The mark [11] stands for this setting: endpoint: mean survival time, dose: 400.0 mg/kg/injection, schedule: Q04DX002 (ip), vehicle: saline with Tween-80.
Setting [12] is: endpoint: mean survival time, dose: 100.0 mg/kg/injection, schedule: Q01DX001 (ip), vehicle: saline with Tween-80.
[13] abbreviates: endpoint: mean survival time, dose: 200.0 mg/kg/injection, schedule: Q01DX001 (ip), vehicle: saline with Tween-80.
[14] abbreviates: endpoint: mean survival time, dose: 400.0 mg/kg/injection, schedule: Q01DX001 (ip), vehicle: saline with Tween-80.
Where [15] appears, read: endpoint: mean survival time, dose: 50.0 mg/kg/injection, schedule: Q01DX009 (ip), vehicle: saline with Tween-80.
Setting [16] is: endpoint: mean survival time, dose: 25.0 mg/kg/injection, schedule: Q01DX009 (ip), vehicle: saline with Tween-80.

“And” between values parts separate entries of the source, which are not always exact repeats. Equal entries are not always repeated. Toxic doses and inconclusive results are not listed.

For 24 molecules, T/C results are on record in PubChem BioAssay AID256 (DTP/NCI, 2004).

Take `COc1ccc2nc3cc(Cl)ccc3c(Nc3ccc(C(O)CCN(C)C)cc3)c2c1` (stereo unspecified): the T/C was 92 % of control (endpoint: mean survival time, dose: 75.0 mg/kg/injection, schedule: Q01DX001 (ip), vehicle: saline); 92 % of control (endpoint: mean survival time, dose: 150.0 mg/kg/injection, schedule: Q01DX001 (ip), vehicle: saline); 90 % of control (endpoint: mean survival time, dose: 300.0 mg/kg/injection, schedule: Q01DX001 (ip), vehicle: saline).

On to `Nc1nc2ccc(Cl)cc2[nH]1`, for which the T/C under setting [1] is 93 % of control and the T/C under setting [2] was 91 % of control.

For `O=C(NCCc1ccccc1)c1ccccc1`, the T/C under setting [3] is 101 % of control, the T/C under setting [4] was 107 % of control and the T/C under setting [5] is 97 % of control.

As for `O=S(=O)(O)CN(CCN(CS(=O)(=O)O)CS(=O)(=O)O)CS(=O)(=O)O`, the T/C runs as follows: under setting [6], 96 % of control; (endpoint: mean survival time, dose: 100.0 mg/kg/injection, schedule: Q04DX003 (ip), vehicle: saline) 109 % of control; under setting [7], 92 % of control; (endpoint: mean survival time, dose: 200.0 mg/kg/injection, schedule: Q04DX003 (ip), vehicle: saline) 97 % of control; under setting [8], 91 % of control; (endpoint: mean survival time, dose: 400.0 mg/kg/injection, schedule: Q04DX003 (ip), vehicle: saline) 97 % of control.

On to `COc1ccc(NC(=O)Oc2c(C)cccc2C)cc1`, for which the T/C under setting [9] is 97 % of control, the T/C under setting [10] is 97 % of control and the T/C under setting [11] was 101 % of control.

Consider `O=C(c1ccccc1)C1OC1(CCl)c1ccccc1` (stereo unspecified), for which the T/C was 106 % of control under setting [12], 90 % of control under setting [13] and 86 % of control under setting [14].

With `CCC1CCCCN1C(=S)N/N=C(\C)c1ccccn1` (stereo unspecified), the T/C runs as follows: (endpoint: median survival time, dose: 6.25 mg/kg/injection, schedule: Q01DX009 (ip), vehicle: saline with Tween-80) 101 % of control; (endpoint: median survival time, dose: 12.5 mg/kg/injection, schedule: Q01DX009 (ip), vehicle: saline with Tween-80) 108 % of control; (endpoint: median survival time, dose: 25.0 mg/kg/injection, schedule: Q01DX009 (ip), vehicle: saline with Tween-80) 86 % of control.

For the molecule `Cc1cc(Cl)ccc1NC(=O)OCCOc1ccc([N+](=O)[O-])cc1`, the T/C under setting [15] is 96 % of control, the T/C under setting [3] is 96 % of control and the T/C under setting [4] is 100 % of control.

Take `CC(=O)Nc1ccc(S(=O)(=O)N(CCO)CCO)cc1`: the T/C under setting [12] was 100 % of control; the T/C under setting [6] is 100 % of control; the T/C under setting [13] was 102 % of control; the T/C under setting [7] was 95 % of control; the T/C under setting [14] was 98 % of control; the T/C under setting [8] was 97 % of control.

Take `CCCN(CCC)N=Nc1c(C(=O)OC)n[nH]c1C`: the T/C under setting [16] was 97 % of control; the T/C under setting [15] was 102 % of control; the T/C under setting [3] is 104 % of control and 108 % of control; the T/C (endpoint: mean survival time, dose: 117.0 mg/kg/injection, schedule: Q01DX009 (ip), vehicle: saline with Tween-80) is 122 % of control; the T/C (endpoint: mean survival time, dose: 178.0 mg/kg/injection, schedule: Q01DX009 (ip), vehicle: saline with Tween-80) was 97 % of control.

For `O=C1CCCC[CH]1[Hg][Cl]` (stereo unspecified), the T/C runs as follows: (endpoint: mean survival time, dose: 1.25 mg/kg/injection, schedule: Q01DX009 (ip), vehicle: saline) 95 % of control; (endpoint: mean survival time, dose: 2.5 mg/kg/injection, schedule: Q01DX009 (ip), vehicle: saline) 107 % of control.

In the case of `COc1c2c(c(OC)c3c(OC)c4ccccc4c(OC)c13)CC(O)CC2` (stereo unspecified), the T/C was 92 % of control (endpoint: mean survival time, dose: 12.5 mg/kg/injection, schedule: Q01DX005 (ip), vehicle: Klucel (hydroxypropylcellulose) (HPC)); 90 % of control (endpoint: mean survival time, dose: 25.0 mg/kg/injection, schedule: Q01DX005 (ip), vehicle: Klucel (hydroxypropylcellulose) (HPC)); 97 % of control (endpoint: mean survival time, dose: 50.0 mg/kg/injection, schedule: Q01DX005 (ip), vehicle: Klucel (hydroxypropylcellulose) (HPC)); 92 % of control (endpoint: mean survival time, dose: 100.0 mg/kg/injection, schedule: Q01DX005 (ip), vehicle: Klucel (hydroxypropylcellulose) (HPC)); 103 % of control (endpoint: mean survival time, dose: 200.0 mg/kg/injection, schedule: Q01DX005 (ip), vehicle: Klucel (hydroxypropylcellulose) (HPC)); 87 % of control (endpoint: mean survival time, dose: 400.0 mg/kg/injection, schedule: Q01DX005 (ip), vehicle: Klucel (hydroxypropylcellulose) (HPC)).

As for `CC1C=CC(C(=O)Nc2ccc(Cl)c(Cl)c2)N1C` (stereo unspecified), where the note is “endpoint: mean survival time, dose: 200.0 mg/kg/injection, schedule: Q04DX003 (ip), vehicle: saline with Tween-80”, the T/C is 92 % of control.

With `O=C(/C=C\C=C\c1ccc2c(c1)OCO2)N1CCCCC1`, the T/C is 111 % of control (endpoint: mean survival time, dose: 12.5 mg/kg/injection, schedule: Q01DX009 (ip), vehicle: saline with Tween-80); 107 % of control under setting [16]; 104 % of control under setting [15].

Consider `c1ccc2cc(-c3cc4ccccc4s3)ccc2c1`, for which the T/C runs as follows: (endpoint: mean survival time, dose: 264.0 mg/kg/injection, schedule: Q01DX009 (ip), vehicle: saline with Tween-80) 104 % of control; under setting [5], 98 % of control.

Consider `CCN=C(N)C(N)=NCC`, for which the T/C was 100 % of control (endpoint: mean survival time, dose: 25.0 mg/kg/injection, schedule: Q04DX002 (ip), vehicle: saline with Tween-80); 96 % of control (endpoint: mean survival time, dose: 50.0 mg/kg/injection, schedule: Q04DX002 (ip), vehicle: saline with Tween-80); 100 % of control under setting [9]; 100 % of control under setting [10].

Take `CCCCCC(O)CCCC` (stereo unspecified): the T/C is, setting by setting: under setting [15], 91 % of control; under setting [3], 100 % of control; under setting [4], 106 % of control.

For `O=C1OC2(c3ccc(O)cc3Oc3cc(O)ccc32)C2C1C1(Cl)C(Cl)=C(Cl)C2(Cl)C1(Cl)Cl` (stereo unspecified), the T/C under setting [3] was 101 % of control, the T/C under setting [4] was 97 % of control and the T/C under setting [5] is 95 % of control.

Consider `c1ccc(N/N=C2/c3ccccc3CC23OC3c2ccccc2)cc1` (stereo unspecified), for which the T/C runs as follows: (endpoint: mean survival time, dose: 25.0 mg/kg/injection, schedule: Q01DX009 (ip), vehicle: Klucel (hydroxypropylcellulose) (HPC)) 97 % of control; under setting [1], 97 % of control; under setting [2], 91 % of control; (endpoint: mean survival time, dose: 200.0 mg/kg/injection, schedule: Q01DX009 (ip), vehicle: Klucel (hydroxypropylcellulose) (HPC)) 97 % of control; (endpoint: mean survival time, dose: 400.0 mg/kg/injection, schedule: Q01DX009 (ip), vehicle: Klucel (hydroxypropylcellulose) (HPC)) 97 % of control.

In the case of `CC(C)(C[NH-])C[NH-].[Cl][Pt+2]([Cl])([Cl])[Cl]`, the T/C by setting is: (endpoint: median survival time, dose: 0.2 mg/kg/injection, schedule: Q04DX003 (ip), vehicle: water) 116 % of control and 111 % of control; (endpoint: median survival time, dose: 0.4 mg/kg/injection, schedule: Q04DX003 (ip), vehicle: water) 116 % of control and 124 % of control; (endpoint: median survival time, dose: 1.6 mg/kg/injection, schedule: Q04DX003 (ip), vehicle: water) 151 % of control and 186 % of control and 228 % of control; (endpoint: median survival time, dose: 3.12 mg/kg/injection, schedule: Q04DX003 (ip), vehicle: distilled water + Tween-80) 123 % of control.

Turning to `O=C(O)CCOc1cc(F)c(F)cc1F`, the T/C runs as follows: under setting [9], 101 % of control; under setting [10], 90 % of control; under setting [11], 97 % of control.

Turning to `CN(C)CC(N)C(=O)O` (stereo unspecified), the T/C is 89 % of control (endpoint: mean survival time, dose: 50.0 mg/kg/injection, schedule: Q04DX002 (ip), vehicle: saline) and 92 % of control (endpoint: mean survival time, dose: 100.0 mg/kg/injection, schedule: Q04DX002 (ip), vehicle: saline).

As for `CS(=O)(=O)C(Br)(Br)S(C)(=O)=O`, the T/C by setting is: (endpoint: mean survival time, dose: 4.7 mg/kg/injection, schedule: Q01DX001 (ip), vehicle: saline with Tween-80) 103 % of control; (endpoint: mean survival time, dose: 9.4 mg/kg/injection, schedule: Q01DX001 (ip), vehicle: saline with Tween-80) 100 % of control.

Take `CCC(=O)c1ccc(Cc2ccc(C(=O)CC)cc2)cc1`: the T/C (endpoint: mean survival time, dose: 50.0 mg/kg/injection, schedule: Q01DX009 (ip), vehicle: saline) was 87 % of control; the T/C (endpoint: mean survival time, dose: 100.0 mg/kg/injection, schedule: Q01DX009 (ip), vehicle: saline) was 92 % of control; the T/C (endpoint: mean survival time, dose: 200.0 mg/kg/injection, schedule: Q01DX009 (ip), vehicle: saline) is 98 % of control; the T/C (endpoint: mean survival time, dose: 400.0 mg/kg/injection, schedule: Q01DX009 (ip), vehicle: saline) was 93 % of control.
